Target: purified αvβ3 (Homo sapiens, UniProt P05106+P06756)
Assay: Binding affinity to purified αvβ3 (fibrinogen-coated plate, IC50)
Settings: purified αvβ3, fibrinogen-coated plates, 2 hours room temperature
Method: The binding affinity of exemplary compounds is show in FIG. 11A, including P-bi-TET and m-P-mono-TET (both having n=36). The method was as follows: The binding affinity of P-bi-TET and m-P-mono-TET to purified αvβ3 was measured using the method described by Li, W., et al., Pharmacokinetics, Biodistribution, and Anti-Angiogenesis Efficacy of Diamino Propane Tetraiodothyroacetic Acid-conjugated Biodegradable Polymeric Nanoparticle. Sci Rep, 2019. 9(1): p. 9006. Ninety-six polystyrene microtiter plates coated with fibrinogen and incubated at 4° C. overnight. The wells were blocked with 3% BSA for 2 hours at room temperature and were washed with buffer A (50 mM Tris/HCl, 100 mM NaCl, 1 mM CaCl2), 1 mM MgCl2, 1% BSA) for three times. Integrins αvβ3 and increasing concentrations of P-bi-TET or m-P-mono-TET were added and incubated for 2 hours at room temperature, and then wells were washed three times with buffer A and incubated with a streptavidin HRP conjugate (1:1000 in buffer A) for 1 hour at room temperature. Finally, wells were washed three times with buffer A and 100 μL peroxidase substrate TMB was added, and the reaction was terminated after 30 minutes with 50 μL of 450 nm stop solution for TMB. Absorbance was determined at 450 nm with a Microplate Reader (Bio-Rad, Hercules, Calif., USA). […]

Sequence of purified αvβ3 (P06756 31-889 limits assumed): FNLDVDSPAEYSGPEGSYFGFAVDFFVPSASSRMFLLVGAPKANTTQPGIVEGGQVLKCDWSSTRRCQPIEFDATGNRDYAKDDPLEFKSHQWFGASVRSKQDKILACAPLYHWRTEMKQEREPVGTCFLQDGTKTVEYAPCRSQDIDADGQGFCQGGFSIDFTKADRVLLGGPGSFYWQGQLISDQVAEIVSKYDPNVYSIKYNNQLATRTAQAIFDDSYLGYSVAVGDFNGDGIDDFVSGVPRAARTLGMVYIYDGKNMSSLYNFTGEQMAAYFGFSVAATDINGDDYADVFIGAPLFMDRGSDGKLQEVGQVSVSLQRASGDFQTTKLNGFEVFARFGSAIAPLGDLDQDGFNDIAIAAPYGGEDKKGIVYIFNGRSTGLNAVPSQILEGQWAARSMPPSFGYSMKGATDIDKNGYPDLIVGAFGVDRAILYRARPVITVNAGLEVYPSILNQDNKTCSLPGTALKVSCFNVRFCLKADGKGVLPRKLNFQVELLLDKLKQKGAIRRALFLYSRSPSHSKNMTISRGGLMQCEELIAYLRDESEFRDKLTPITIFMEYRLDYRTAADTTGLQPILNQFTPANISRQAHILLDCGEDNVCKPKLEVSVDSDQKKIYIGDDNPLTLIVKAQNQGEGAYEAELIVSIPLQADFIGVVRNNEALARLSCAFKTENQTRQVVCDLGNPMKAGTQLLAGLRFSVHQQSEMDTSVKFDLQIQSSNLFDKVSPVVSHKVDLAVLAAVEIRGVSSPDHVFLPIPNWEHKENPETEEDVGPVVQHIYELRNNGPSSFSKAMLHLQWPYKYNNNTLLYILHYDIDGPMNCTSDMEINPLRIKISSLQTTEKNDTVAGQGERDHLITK
Sequence of purified αvβ3 (P06756 891-1048 limits assumed): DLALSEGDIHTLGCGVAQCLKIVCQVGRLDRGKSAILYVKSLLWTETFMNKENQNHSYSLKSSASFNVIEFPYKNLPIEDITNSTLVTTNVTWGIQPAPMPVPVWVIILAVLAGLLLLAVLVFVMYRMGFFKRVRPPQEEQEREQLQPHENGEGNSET
Sequence of purified αvβ3 (P05106 27-788): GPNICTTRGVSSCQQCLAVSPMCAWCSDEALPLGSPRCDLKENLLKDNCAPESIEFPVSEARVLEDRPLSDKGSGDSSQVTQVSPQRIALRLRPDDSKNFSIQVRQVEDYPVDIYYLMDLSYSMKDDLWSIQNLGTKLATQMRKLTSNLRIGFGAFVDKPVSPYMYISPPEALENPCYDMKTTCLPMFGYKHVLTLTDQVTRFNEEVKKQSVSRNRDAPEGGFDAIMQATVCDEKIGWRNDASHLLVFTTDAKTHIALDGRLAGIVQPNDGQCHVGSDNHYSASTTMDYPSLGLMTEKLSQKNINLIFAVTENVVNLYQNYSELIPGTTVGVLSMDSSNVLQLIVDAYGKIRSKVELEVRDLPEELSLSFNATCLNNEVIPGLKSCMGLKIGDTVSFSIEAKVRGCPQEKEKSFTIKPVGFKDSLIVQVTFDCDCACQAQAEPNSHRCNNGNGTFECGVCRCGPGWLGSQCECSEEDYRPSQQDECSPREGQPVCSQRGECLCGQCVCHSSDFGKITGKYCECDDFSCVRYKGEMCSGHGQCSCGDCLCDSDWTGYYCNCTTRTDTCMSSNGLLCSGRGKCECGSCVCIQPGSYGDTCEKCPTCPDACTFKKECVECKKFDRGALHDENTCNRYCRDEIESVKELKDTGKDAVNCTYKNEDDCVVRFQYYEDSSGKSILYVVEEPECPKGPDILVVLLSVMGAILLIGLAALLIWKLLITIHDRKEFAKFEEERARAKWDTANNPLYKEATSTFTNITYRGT

IC50: 105.4 ± 0.86 nM
SMILES: O=C(O)Cc1cc(I)c(Oc2cc(I)c(O)c(I)c2)c(I)c1 [Tetrac, tetraiodothyroacetic acid]

Reference: patent US11723888B2, “Polymer conjugated thyrointegrin antagonists” (NanoPharmaceuticals, LLC, priority 2021, dated 2023)
